# Experimental data taken from patent publication US20060189530A1 (Bayer Corporation, priority 1996, published 2006).
# Substitutions are numbered along the chain they refer to. Where “and” joins values, the source holds several entries; their conditions need not be identical. Identical values can stand only once. Ends that are not written are not given here.
# T1: human NPY Y5 receptor (human, UniProt Q15761 1-445)
# T1 construct: also called HUMAN Clone
# T1 sequence: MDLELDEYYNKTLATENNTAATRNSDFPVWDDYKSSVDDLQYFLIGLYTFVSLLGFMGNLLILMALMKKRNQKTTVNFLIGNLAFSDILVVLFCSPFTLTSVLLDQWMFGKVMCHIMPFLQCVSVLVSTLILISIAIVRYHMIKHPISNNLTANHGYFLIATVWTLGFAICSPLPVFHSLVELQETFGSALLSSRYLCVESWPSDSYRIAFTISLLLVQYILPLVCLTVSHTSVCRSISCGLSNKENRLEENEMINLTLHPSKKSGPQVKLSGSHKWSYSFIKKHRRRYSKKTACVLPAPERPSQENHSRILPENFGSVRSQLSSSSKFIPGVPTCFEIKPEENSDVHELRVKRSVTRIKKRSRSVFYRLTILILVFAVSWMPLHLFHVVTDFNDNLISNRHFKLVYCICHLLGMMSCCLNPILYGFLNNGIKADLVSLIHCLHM
# T2: rat NPY Y5 receptor, Y861 clone (rat, UniProt Q63634 1-445)
# T2 sequence: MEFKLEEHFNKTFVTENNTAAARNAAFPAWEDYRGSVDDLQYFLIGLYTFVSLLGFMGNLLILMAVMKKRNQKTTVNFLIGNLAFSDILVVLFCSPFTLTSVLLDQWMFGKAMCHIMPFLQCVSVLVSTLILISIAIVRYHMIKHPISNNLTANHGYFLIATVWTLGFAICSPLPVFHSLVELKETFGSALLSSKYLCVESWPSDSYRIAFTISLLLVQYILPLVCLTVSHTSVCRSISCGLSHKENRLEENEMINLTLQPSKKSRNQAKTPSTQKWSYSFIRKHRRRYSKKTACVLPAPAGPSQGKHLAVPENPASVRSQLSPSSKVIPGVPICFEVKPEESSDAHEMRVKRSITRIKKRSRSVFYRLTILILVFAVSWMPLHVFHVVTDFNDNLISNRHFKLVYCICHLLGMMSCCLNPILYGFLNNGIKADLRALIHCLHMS
# T3: Rat Y2 (clone) (Rattus norvegicus, UniProt Q9ERC0)
# T3 sequence (Q9ERC0 1-381): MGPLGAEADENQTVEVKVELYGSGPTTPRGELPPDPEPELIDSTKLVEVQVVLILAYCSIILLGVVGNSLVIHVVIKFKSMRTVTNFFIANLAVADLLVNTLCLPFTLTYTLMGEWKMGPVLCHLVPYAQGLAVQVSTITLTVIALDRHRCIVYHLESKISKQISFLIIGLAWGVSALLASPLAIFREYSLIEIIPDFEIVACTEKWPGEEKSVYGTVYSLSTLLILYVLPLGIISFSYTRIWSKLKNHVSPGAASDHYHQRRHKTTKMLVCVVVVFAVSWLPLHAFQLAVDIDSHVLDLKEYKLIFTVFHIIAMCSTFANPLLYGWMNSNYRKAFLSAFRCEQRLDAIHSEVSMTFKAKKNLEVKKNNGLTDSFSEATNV
# T4: Rat Y1 (clone) (Rattus norvegicus, UniProt P21555)
# T4 sequence (P21555 1-382): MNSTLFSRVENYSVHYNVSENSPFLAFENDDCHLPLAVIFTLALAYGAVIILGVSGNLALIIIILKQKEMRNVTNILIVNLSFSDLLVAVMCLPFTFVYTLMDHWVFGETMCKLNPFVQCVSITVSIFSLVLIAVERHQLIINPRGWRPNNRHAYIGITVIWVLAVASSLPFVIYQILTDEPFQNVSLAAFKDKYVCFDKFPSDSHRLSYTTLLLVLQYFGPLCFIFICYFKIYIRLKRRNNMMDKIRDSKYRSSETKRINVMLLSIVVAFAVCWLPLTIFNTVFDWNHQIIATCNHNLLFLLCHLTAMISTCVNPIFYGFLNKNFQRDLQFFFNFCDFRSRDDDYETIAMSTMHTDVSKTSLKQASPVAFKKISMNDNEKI
# T5: human NPY Y5 receptor (Homo sapiens, UniProt Q15761)
# T5 construct: containing the full length open reading frame encoding the receptor; expressed in transfected cells
# T5 sequence (Q15761 1-445): T1 sequence
# T6: rat NPY Y5 receptor (Y861 clone) (Rattus norvegicus, UniProt Q63634)
# T6 sequence (Q63634 1-445): T2 sequence
# T7: rat NPY Y5 receptor (6B clone) (Rattus norvegicus, UniProt Q63634, L61P)
# T7 construct: expressed in transfected cells; host or cells: COS-7 (transient), membranes
# T7 sequence (Q63634 1-445 L61P): T2 sequence with L61P
# B1: r(13-36)NPY (peptide, UniProt P07808 42-65, looked up)
# peptide: PAEDMARYYSALRHYINLITRQRY
# modifications: ends and bridges not checked
# notes: range 13-36; it may be a misprint for r(13-36)PYY (rat NPY is elsewhere written r/h)
# What was measured:
# [1] = system: food intake of Wistar rats; assay: In vivo feeding after ICV injection in rats; design: species or system rat; conditions: for Feeding: ICV, 1-6 nmoles peptide, chow consumed in 2 hours; for Feeding response in rats (in words): in vivo feeding model
# Experimental: Adult male Wistar rats were surgically implanted with a chronic intracerebral ventricular (ICV) cannula (Plastic Products, Roanoke, Va.) using a stereotaxic instrument. Several days after the surgery, 1-6 nmoles of each peptide (or saline) was injected into the lateral ventricle of 4-12 rats in a volume of 5-10 μl. The quantity of rodent chow consumed in a 2 hour period was measured.
# human NPY Y5 receptor [2] = target: T1, human NPY Y5 receptor; assay: [125I]PYY competition, membranes of stable 293 clone 293.hY5.sb.8
# [3] = target: T2, rat NPY Y5 receptor, Y861 clone; assay: [125I]PYY competition, membranes of stable 293S clone 293S.Y861.2
# Rat Y2 (clone) = target: T3, Rat Y2 (clone); assay: [125I]PYY binding assay for rat Y2 receptor
# Rat Y1 (clone) = target: T4, Rat Y1 (clone); assay: [125I]PYY binding assay for rat Y1 receptor
# human NPY Y5 receptor [4] = target: T5, human NPY Y5 receptor; assay: [125I]PYY competition binding, human Y5 clone transiently expressed in COS-7 membranes; conditions: transient COS-7 membranes, ± SEM, read-out: NPY Y5 binding affinity Ki, HUMAN Clone
# [5] = target: T6, rat NPY Y5 receptor (Y861 clone); assay: [125I]PYY competition binding, rat Y5 Y861 clone transiently expressed in COS-7 membranes; design: expressed in transfected cells; host or cells: COS-7 (transient), membranes; conditions: transient COS-7 membranes, ± SEM, read-out: NPY Y5 binding affinity Ki, RAT Y861 Clone
# Experimental: Monkey kidney cells (COS-7) were maintained in T-175 cm^2 flasks (NUNC) at 37° C. with 5% CO2 in a humidified atmosphere. Cells were grown in Dulbecco's Modified Eagle Medium (DMEM) supplemented with 2 mM glutamine, 10% fetal bovine serum, 1 mM sodium pyruvate, and antibiotic/antimycotic. Cells at 70% confluency were transfected with Y5 DNA using the Lipofectamine method (GIBCO-BRL). 15 μg DNA and 90 μl Lipofectamine were added to each flask. Media was completely replaced 24 hours post transfection, and membranes were harvested 24 hours later.
# The media was removed from each flask of transfected cells, and the cells were washed twice with 20 ml ice-cold phosphate buffered saline. The cells were scraped from the flask in 5 ml of Tris buffer (20 mM Tris-HCl and 5 mM EDTA, pH 7.7), and then transferred to a centrifuge tube. […] Protein concentration was measured using the Bio-Rad kit pursuant to the standard manufacturer's protocol (Biorad Laboratories, Hercules, Calif.),with bovine IgG as the standard. […]
# (§1) After a 2 hour incubation at room temperature with constant mixing, the samples were aspirated on a vacuum manifold. […] The individual wells were punched into 12×75 mm plastic tubes, and counted on a Wallac (Gaithersburg, Md.) gamma counter. Binding data were analyzed using the nonlinear regression curve-fitting program RS/1 (BBN Software Products Corp., Cambridge, Mass.). […]
# [6] = target: T7, rat NPY Y5 receptor (6B clone); assay: [125I]PYY competition binding, rat Y5 6B clone transiently expressed in COS-7 membranes; conditions: transient COS-7 membranes, ± SEM, read-out: NPY Y5 binding affinity Ki, RAT 6B Clone
# Experimental: Cells at 70% confluency were transfected with Y5 DNA using the Lipofectamine method (GIBCO-BRL). 15 μg DNA and 90 μl Lipofectamine were added to each flask. Media was completely replaced 24 hours post transfection, and membranes were harvested 24 hours later.
# The media was removed from each flask of transfected cells, and the cells were washed twice with 20 ml ice-cold phosphate buffered saline. The cells were scraped from the flask in 5 ml of Tris buffer (20 mM Tris-HCl and 5 mM EDTA, pH 7.7), and then transferred to a centrifuge tube. Each flask was washed with an additional 5 ml of Tris buffer and combined in the centrifuge tube. The cells were polytroned for 2×10 seconds (12 mm probe, 7000-8000 rpm) and centrifuged 5 minutes (Centra 7R, International Equipment Co., Needham Heights, Mass.) at 800 rpm and 4° C. […] Protein concentration was measured using the Bio-Rad kit pursuant to the standard manufacturer's protocol (Biorad Laboratories, Hercules, Calif.),with bovine IgG as the standard. […]
# as §1
# [7] = target: T2, rat NPY Y5 receptor, Y861 clone; assay: cell-based or functional assay
# human NPY Y5 receptor [8] = target: T1, human NPY Y5 receptor; assay: [125I]PYY competition, membranes of transiently transfected COS-7 cells; individual experiment
# Experimental: The binding assays were performed on GF/C Millipore (Bedford, Mass.) 96-well plates pretreated with 0.02% polyethylenimine (PEI) for at least 2 hours prior to use. The PEI was aspirated from the plates on a vacuum manifold immediately before the samples were added to the wells. All peptides, tissue and radioligand were diluted with binding buffer (25 mM Tris, 120 mM NaCl, 5 mM KCl, 1.2 MM KH₂PO₄, 2.5 mM CaCl₂, 1.2 mM MgSO₄, 0.1% BSA and 0.5 mg/ml bacitracin, pH 7.4).
# After a 2 hour incubation at room temperature with constant mixing, the samples were aspirated on a vacuum manifold. The wells were washed with three 200 μl aliquots of ice-cold binding buffer. The individual wells were punched into 12×75 mm plastic tubes, and counted on a Wallac (Gaithersburg, Md.) gamma counter. Binding data were analyzed using the nonlinear regression curve-fitting program RS/1 (BBN Software Products Corp., Cambridge, Mass.).
# Each point is the average value of triplicate determinations from a representative experiment. […] Kᵢ values were calculated from the IC₅₀ values using the Cheng-Prusoff correction, such that Kᵢ=IC₅₀/(1±(L/Kd)), where L is the radioligand concentration and Kd is the dissociation constant.
molecule,measurement,setting,value
(26-36)NPY [r/h(26-36)NPY],Feeding,[1],<3 g/2 h
(22-36)NPY [r/h(22-36)NPY],Feeding,[1],<3 g/2 h
(Leu^31Pro^34)PYY [h(LP)PYY],Feeding,[1],>5 g/2 h
(10-36)NPY [r/h(10-36)NPY],Feeding,[1],<3 g/2 h
(18-36)NPY [p(18-36)NPY],Feeding,[1],<3 g/2 h
(13-36)PYY (peptide),Ki,human NPY Y5 receptor [2],24 nM
same,Ki,[3],29 nM
(3-36)NPY [p(3-36)NPY],Affinity for Y2 receptor (in words),Rat Y2 (clone),binds preferentially
same,Affinity for Y1 receptor (in words),Rat Y1 (clone),much weaker
same,Feeding,[1],>5 g/2 h
same,Feeding response in rats (in words),[1],stimulate feeding
(Leu^31Pro^34)(3-36)NPY [(LP)(3-36)NPY],Feeding,[1],>5 g/2 h
same,Feeding response in rats (in words),[1],stimulates feeding
Neuropeptide Y [r/hNPY],Feeding,[1],>5 g/2 h
(20-36)NPY [r/h(20-36)NPY],Feeding,[1],<3 g/2 h
same,Feeding response in rats (in words),[1],do not elicit feeding
NC(N)=NCCC[C@@H](NC(=O)C(c1ccccc1)c1ccccc1)C(=O)NCc1ccc(O)cc1 [BIBP3226],Ki,human NPY Y5 receptor [4],> 1000 nM
same,Ki,[5],> 1000 nM
same,Ki,[6],> 1000 nM
(Leu^31Pro^34)NPY [p(LP)NPY],Feeding,[1],>5 g/2 h
same,Feeding response in rats (in words),[1],stimulate feeding
(2-36)NPY [r/h(2-36)NPY],Feeding,[1],>5 g/2 h
"APLEPVYPGDNATPEQMAQYAADLRRYINMLTRPRY (peptide, UniProt P01298 30-65, looked up) [hPP (human pancreatic polypeptide)]","EC50, forskolin-stimulated adenylate cyclase (cAMP), 293S.Y861.2 cells",[7],1 nM
B1,Ki,human NPY Y5 receptor [8],89 nM and 65 nM
